Measurements: patent US11110195B2, “Esculentin 1a derivatives and uses thereof” (University of Houston System, priority 2013, dated 2021)
Residues, ends and D or L forms follow the SMILES beside them.

Experiments:
[1] = tested on: Pseudomonas aeruginosa ATCC 19660; assay: Viable bacterial count in infected corneas; format: in vivo, C57BL/6 mice; conditions: for difference in viable bacterial counts vs PBS control: pre-treated or treated groups; for viable bacterial count in cornea: pre-treated
Description: Corneas were harvested 1, 3 and 5 days after infection and the number of surviving bacteria determined. […] P1=post infection; Pre-trt=pretreatment with Esc-1a(1-21)NH2. *Indicates significant difference, p<0.05, among PBS control and peptide treated groups.
To determine a clinical score, neutrophil infiltration by myeloperoxidase assay (MPO assay) and viable bacterial cell counts in infected and control corneas of C57BL/6 mice with Pseudomonas aeruginosa ATCC 19660 keratitis following pre-treatment and post-infection treatment with Esc-1a(1-21)NH2 up to 5 days post-infection (PI) the following experiment was performed. In these experiments pre-treatment refers to a group of animals where treatment was initiated 24 hrs before infection then continued after infection.
To quantitate viable bacteria, a 100 μl aliquot from the corneal homogenates was serially diluted 1:10 in sterile PBS. Duplicate aliquots (20 μl) of each dilution, including the original homogenate, were plated onto nutrient agar. Plates were incubated for 14-16 h at 37° C.
The harvested corneas were homogenized, plated on growth media and the bacterial colonies recovered counted 14-18 hours post plating. Data plotted (FIG. 7) show the viable bacterial counts obtained from an average of 3 independent experiments.

P. aeruginosa ATCC 27853 = assay: Bactericidal activity in the presence of reflex human tears; format: cell-based, Pseudomonas aeruginosa; conditions: 10 μM or 20 μM peptide, 50% or 70% reflex tears
Protocol: FIG. 3A: Bacterial cells were incubated with 10 μM or 20 μM peptide in the presence of 50% reflex tears induced by onion vapors and pooled from three consenting adult volunteers with a normal ocular surface. FIG. 3B: Bacteria were incubated with 20 μM peptide in the presence of 70% reflex tears. In both cases, aliquots were withdrawn for cell counting at different time intervals. Mean data, expressed as the percentage of bacteria killed by the peptide are shown.
2×10^6 CFU/ml P. aeruginosa (ATCC 27853) were incubated with 10μM or 20μM Esc-1a(1-21)NH2 in the presence of 50% (FIG. 3A) or 70% (FIG. 3B) human reflex tears and aliquots withdrawn, plated and counted after 30, 90 and 120 minutes (n=3).

[2] = tested on: A. castellani (ATCC 50370) trophozoites; assay: Acanthamoeba viability, ethidium homodimer-1 time lapse microscopy; format: cell-based, Acanthamoeba castellani
Protocol: FIGS. 8A-8D show the effect of Esc-1a(1-21)NH2 on the viability of Acanthamoeba castellani. The amoeba were seeded in to chamber slides, then a fluorescent viability dye (ethidium homodimer-1) and 500 μg/ml Esc-1a(1-21)NH2 added. The amoebas were viewed by time lapse microscopy in an environmental chamber for 6 hours. Images are from before peptide addition at time zero in healthy trophozoites (FIG. 8A), then 10 minutes (FIG. 8B), 2 hours (FIG. 8C) and 6 hours (FIG. 8D) post addition of peptide Esc-1a(1-21)NH2. […] Significant amounts of debris accumulated over time indicating rupture of the cells.
1×10^4 A. castellani (ATCC 50370) trophozoites in PYG 712 growth medium were transferred to coverglass chamber slides and allowed to attach overnight. The cells were then incubated with PYG 712 medium containing a 1:100 dilution of ethidium homodimer-1 (EthD-1) for 15 minutes at room temperature. EthD-1 is a cell-impermeant viability indicator dye that is taken up by cells with a compromised plasma membrane and fluoresces red/orange when bound to DNA. Serial brightfield and fluorescence images were taken using a DeltaVision Spectris Core fluorescence microscope every 3 minutes for 30 minutes to visualize cellular health prior to addition of Esc-1a(1-21)NH2. The medium was then replaced with 200 μl growth media containing 125, 250 or 500 μg/ml Esc-1a(1-21)NH2 and 1:100 diluted ethidium homodimer-1. Brightfield and fluorescence images were taken every 3 minutes for another 6 hours. Serial images were compiled together using Softworx software (Applied Precision) to generate time-lapse videos.

[3] = tested on: TNF-α secretion from LPS-stimulated RAW264.7 macrophages; assay: Anti-endotoxin activity: TNF-α release from LPS-stimulated macrophages (ELISA); format: cell-based, murine; conditions: LPS 10 ng/ml, 4 hours
Protocol: RAW264.7 cells were stimulated with LPS (10 ng/ml) derived from P. aeruginosa 10 in the presence of 1, 5, 10 and 20 μM Esc-1a(1-21)NH2 for 4 hours at 37° C. and 5% CO2. The percentage of inhibition of TNF-α release was normalized to that of macrophages stimulated with LPS without peptide (0% inhibition).
Macrophages (Raw 264.7) were cultured overnight in 96-well plates (1×10^5 cells/well) in DMEM supplemented with 2 mM L-glutamine, 1 mM sodium pyruvate, non-essential amino acids (NEAA), and 10% FBS. The medium was then removed and replaced with fresh medium containing LPS (10 ng/ml final concentration) and the peptide at different concentrations. Cells were incubated at 37° C. for 4 h, after which the medium was collected and TNF-α concentration in the samples was evaluated using a mouse TNF-α enzyme-linked immunosorbant assay kit according to the manufacturer's protocol (ELISA, Biosource). Cells that were stimulated with LPS alone, and untreated cells served as controls. All experiments were done in triplicate.

HaCaT keratinocytes = tested on: HaCaT keratinocytes
Description: Cell viability is expressed as percentage with respect to the control (cells not treated with the peptide). Data points represent the mean of triplicate samples ±SEM.

For `CC[C@H](C)[C@H](NC(=O)CN)C(=O)N[C@@H](Cc1ccccc1)C(=O)N[C@@H](CO)C(=O)N[C@@H](CCCCN)C(=O)N[C@@H](CC(C)C)C(=O)N[C@@H](C)C(=O)NCC(=O)N[C@@H](CCCCN)C(=O)N[C@@H](CCCCN)C(=O)N[C@H](C(=O)N[C@@H](CCCCN)C(=O)N[C@@H](CC(N)=O)C(=O)N[C@@H](CC(C)C)C(=O)N[C@@H](CC(C)C)C(=O)N[C@H](C(=O)N[C@@H](CO)C(=O)NCC(=O)N[C@@H](CC(C)C)C(=O)N[C@@H](CCCCN)C(=O)NCC(N)=O)[C@@H](C)CC)[C@@H](C)CC` [Esc-1a(1-21)NH2] (H-GIFSKLAGKKIKNLLISGLKG-NH2; N-terminus assumed), the “difference in viable bacterial counts vs PBS control” value ([1]; day 5 PI) was 4 log10, the “difference in viable bacterial counts vs PBS control” value ([1]; days 1 and 3 PI) was 2-3 log10 CFU and the “viable bacterial count in cornea” value ([1]; day 1 PI) was 3.35 log10 CFU. For the same compound, the “viable bacterial count in cornea” value ([1]; day 3 PI) was 3.7 log10 CFU, the “viable bacterial count in cornea” value ([1]; day 5 PI) was 3.47 log10 CFU and the “retention of activity in reflex tears” value (P. aeruginosa ATCC 27853) was “activity was retained”. The “trophozoites stained positively with EthD-1” value ([2]; 125 μg/ml, 6 hours) was “approximately 67%”, the “trophozoites stained positively with EthD-1” value ([2]; 250 μg/ml, 10 minutes) was “approximately 82%” and the “trophozoites stained positively with EthD-1” value ([2]; 250 μg/ml, 6 hours) was about 100%. For the same compound, the “time until orange/red fluorescence (dead/dying cells) detected” value ([2]; 500 μg/ml) was at most 10 min, the “inhibition of TNF-α secretion” value ([3]; 10 μM peptide) was about 80% and the “inhibition of TNF-α secretion” value ([3]; 20 μM peptide) was about 90%. The “reduction in the number of metabolically-active keratinocytes” value (HaCaT keratinocytes; 2 h treatment, 1-64 μM) was “did not show any remarkable reduction” and the “reduction in the percentage of metabolically-active cells” value (HaCaT keratinocytes; 24 h, 32 μM and 64 μM) was “approximately 20%”.
